From publication PMC5218480 (PLoS ONE, 2017) come the findings set out here.

In the assay the test system is MV-4-11 cells. Briefly: Gene expression microarray analysis (Affymetrix PrimeView) and GSEA. Type of assay: cell-based, human. Details: RFU PODN (11730768_x_at) / Fold change /veh PODN (11730768_x_at) / RFU LINC00158 (11744669_a_at) / Fold change /veh LINC00158 (11744669_a_at) / RFU DUSP10 (11751237_a_at) / Fold change /veh DUSP10 (11751237_a_at) / RFU ID3 (11757404_x_at) / Fold change /veh ID3 (11757404_x_at) / RFU PLEKHG5 (11737974_s_at) / Fold change /veh PLEKHG5 (11737974_s_at) / RFU LRRC4B (11730491_at) / Fold change /veh LRRC4B (11730491_at) / RFU GIMAP4 (11747438_a_at) / Fold change /veh GIMAP4 (11747438_a_at) / RFU KRT8 (11758183_x_at) / Fold change /veh KRT8 (11758183_x_at) / RFU CNN1 (11734310_a_at) / Fold change /veh CNN1 (11734310_a_at) / RFU VPS37D (11726825_at) / Fold change /veh VPS37D (11726825_at) / RFU C10orf10 (11716522_x_at) / Fold change /veh C10orf10 (11716522_x_at) / RFU KIR2DL2 /// KIR2DL4 /// KIR2DL5A /// KIR2DL5B /// KIR2DS1 /// KIR2DS2 /// KIR2DS3 /// KIR2DS4 /// KIR3DL3 /// KIR3DL3 /// KIR3DS1 (11738374_at) / Fold change /veh KIR2DL2 /// KIR2DL4 /// KIR2DL5A /// KIR2DL5B /// KIR2DS1 /// KIR2DS2 /// KIR2DS3 /// KIR2DS4 /// KIR3DL3 /// KIR3DL3 /// KIR3DS1 (11738374_at) / RFU C1QL1 (11718748_at) / Fold change /veh C1QL1 (11718748_at) / RFU TMPRSS4 (11747572_a_at) / Fold change /veh TMPRSS4 (11747572_a_at) / RFU HAMP (11756126_x_at) / Fold change /veh HAMP (11756126_x_at) / RFU RNFT2 (11725882_a_at) / Fold change /veh RNFT2 (11725882_a_at) / RFU NR4A2 (11747474_a_at) / Fold change /veh NR4A2 (11747474_a_at) / RFU ABCC12 (11746883_a_at) / Fold change /veh ABCC12 (11746883_a_at) / RFU TMEM136 (11760407_x_at) / Fold change /veh TMEM136 (11760407_x_at) / RFU CLDN22 /// WWC2 (11732394_at) / Fold change /veh CLDN22 /// WWC2 (11732394_at) / RFU HLA-DPB1 (11760878_x_at) / Fold change /veh HLA-DPB1 (11760878_x_at) / RFU SPINT1 (11716480_a_at) / Fold change /veh SPINT1 (11716480_a_at) / RFU GAP43 (11754022_s_at) / Fold change /veh GAP43 (11754022_s_at) / RFU A4GNT (11735810_at) / Fold change /veh A4GNT (11735810_at) / RFU PRB3 (11715151_x_at) / Fold change /veh PRB3 (11715151_x_at) / RFU TUBB4B (11761932_at) / Fold change /veh TUBB4B (11761932_at) / RFU CAPN14 (11732068_a_at) / Fold change /veh CAPN14 (11732068_a_at) / RFU TMCC2 (11721928_a_at) / Fold change /veh TMCC2 (11721928_a_at) / RFU IRGQ (11745062_a_at) / Fold change /veh IRGQ (11745062_a_at) / RFU FAM174B (11720279_a_at) / Fold change /veh FAM174B (11720279_a_at) / RFU TMPRSS4 (11748680_a_at) / Fold change /veh TMPRSS4 (11748680_a_at) / RFU FAM212B (11763350_a_at) / Fold change /veh FAM212B (11763350_a_at) / RFU PLEKHG5 (11743358_a_at) / Fold change /veh PLEKHG5 (11743358_a_at) / RFU ZSCAN30 (11745921_a_at) / Fold change /veh ZSCAN30 (11745921_a_at) / RFU CMKLR1 (11741424_a_at) / Fold change /veh CMKLR1 (11741424_a_at) / RFU LOC101060620 /// MAPK8IP1 (11723275_at) / Fold change /veh LOC101060620 /// MAPK8IP1 (11723275_at) / RFU SPTSSB (11747773_x_at) / Fold change /veh SPTSSB (11747773_x_at) / RFU PRSS12 (11739890_at) / Fold change /veh PRSS12 (11739890_at) / RFU BIN1 (11741810_x_at) / Fold change /veh BIN1 (11741810_x_at) / RFU WNT11 (11732464_a_at) / Fold change /veh WNT11 (11732464_a_at) / RFU C10orf10 (11716521_a_at) / Fold change /veh C10orf10 (11716521_a_at) / RFU C5orf56 (11738089_at) / Fold change /veh C5orf56 (11738089_at) / RFU CYB561 (11721691_x_at) / Fold change /veh CYB561 (11721691_x_at) / RFU ANKRD19P (11752326_a_at) / Fold change /veh ANKRD19P (11752326_a_at) / RFU OR2T12 /// OR2T33 /// OR2T8 (11738714_s_at) / Fold change /veh OR2T12 /// OR2T33 /// OR2T8 (11738714_s_at) / RFU VCAN (11748164_a_at) / Fold change /veh VCAN (11748164_a_at) / RFU JSRP1 (11732532_at) / Fold change /veh JSRP1 (11732532_at) / RFU KRTAP10-11 (11738290_x_at) / Fold change /veh KRTAP10-11 (11738290_x_at) / RFU MYO3A (11730013_a_at) / Fold change /veh MYO3A (11730013_a_at) / RFU EBF3 (11725865_a_at) / Fold change /veh EBF3 (11725865_a_at) / RFU CAMK2N1 (11719241_x_at) / Fold change /veh CAMK2N1 (11719241_x_at) / RFU C5orf56 (11738088_a_at) / Fold change /veh C5orf56 (11738088_a_at) / RFU OLFML3 (11715873_a_at) / Fold change /veh OLFML3 (11715873_a_at) / RFU LOC100653217 /// NTM (11731650_a_at) / Fold change /veh LOC100653217 /// NTM (11731650_a_at) / RFU MAPK11 (11762145_a_at) / Fold change /veh MAPK11 (11762145_a_at) / RFU FIZ1 (11724087_x_at) / Fold change /veh FIZ1 (11724087_x_at) / RFU OASL (11726364_x_at) / Fold change /veh OASL (11726364_x_at) / RFU SOX15 (11748057_x_at) / Fold change /veh SOX15 (11748057_x_at) / RFU CD79A (11719716_a_at) / Fold change /veh CD79A (11719716_a_at) / RFU HIST1H1D (11736915_at) / Fold change /veh HIST1H1D (11736915_at) / RFU CASKIN2 (11723855_a_at) / Fold change /veh CASKIN2 (11723855_a_at) / RFU LOC730098 (11760151_x_at) / Fold change /veh LOC730098 (11760151_x_at) / RFU OR4N2 (11742367_at) / Fold change /veh OR4N2 (11742367_at) / RFU PRRT2 (11749266_a_at) / Fold change /veh PRRT2 (11749266_a_at) / RFU SNX32 (11753110_a_at) / Fold change /veh SNX32 (11753110_a_at) / RFU CDHR5 (11726645_a_at) / Fold change /veh CDHR5 (11726645_a_at) / RFU RCAN1 (11760418_a_at) / Fold change /veh RCAN1 (11760418_a_at) / RFU FAM167A (11723789_a_at) / Fold change /veh FAM167A (11723789_a_at) / RFU FAM26E (11764081_at) / Fold change /veh FAM26E (11764081_at) / RFU ISYNA1 (11749810_s_at) / Fold change /veh ISYNA1 (11749810_s_at) / RFU ACY1 (11761880_at) / Fold change /veh ACY1 (11761880_at) / RFU 11764098_at / Fold change /veh 11764098_at / RFU SAMD14 (11745864_x_at) / Fold change /veh SAMD14 (11745864_x_at) / RFU NPB (11741838_a_at) / Fold change /veh NPB (11741838_a_at) / RFU TMPRSS6 (11731388_a_at) / Fold change /veh TMPRSS6 (11731388_a_at) / RFU KRTAP10-2 (11738614_at) / Fold change /veh KRTAP10-2 (11738614_at) / RFU ARHGAP8 /// PRR5-ARHGAP8 (11727945_x_at) / Fold change /veh ARHGAP8 /// PRR5-ARHGAP8 (11727945_x_at) / RFU KRTAP5-7 /// NADSYN1 (11734609_at) / Fold change /veh KRTAP5-7 /// NADSYN1 (11734609_at) / RFU RASL12 (11751679_a_at) / Fold change /veh RASL12 (11751679_a_at) / RFU CDKN2B (11736163_a_at) / Fold change /veh CDKN2B (11736163_a_at) / RFU PRF1 (11729649_at) / Fold change /veh PRF1 (11729649_at) / RFU, ZNF638 /// ZNF638-IT1 / Fold change vs veh, ZNF638 /// ZNF638-IT1 / RFU, PANK3 / Fold change vs veh, PANK3 / RFU, SH3YL1 / Fold change vs veh, SH3YL1 / RFU, ZEB2 / Fold change vs veh, ZEB2 / RFU, NRIP1 / Fold change vs veh, NRIP1 / RFU, PTTG1IP / Fold change vs veh, PTTG1IP / RFU, CAPN2 / Fold change vs veh, CAPN2 / RFU, MED14 / Fold change vs veh, MED14 / RFU, SNORA58 / Fold change vs veh, SNORA58 / RFU, C1orf63 / Fold change vs veh, C1orf63 / RFU, LRRFIP1 / Fold change vs veh, LRRFIP1 / RFU, NDUFAF7 / Fold change vs veh, NDUFAF7 / RFU, SLC12A2 / Fold change vs veh, SLC12A2 / RFU, IBTK / Fold change vs veh, IBTK / RFU, ESF1 / Fold change vs veh, ESF1 / Fold change vs veh, TMEM50B / RFU, TAOK1 / Fold change vs veh, TAOK1 / RFU, ACBD3 / Fold change vs veh, ACBD3 / RFU, TMA16 / Fold change vs veh, TMA16 / RFU, RWDD3 / Fold change vs veh, RWDD3 / RFU, BCAT1 / Fold change vs veh, BCAT1 / RFU, EDEM3 / Fold change vs veh, EDEM3 / RFU, TMEM33 / Fold change vs veh, TMEM33 / RFU, WDR75 / Fold change vs veh, WDR75 / RFU, AHCTF1 / Fold change vs veh, AHCTF1 / RFU, TFRC / Fold change vs veh, TFRC / RFU, ZDHHC17 / Fold change vs veh, ZDHHC17 / RFU, NOM1 / Fold change vs veh, NOM1 / RFU, ARL8B / Fold change vs veh, ARL8B / RFU, ZBTB11 / Fold change vs veh, ZBTB11 / RFU, TAMM41 / Fold change vs veh, TAMM41 / RFU, KIAA1704 /// LOC100996395 / Fold change vs veh, KIAA1704 /// LOC100996395 / RFU, ING1 / Fold change vs veh, ING1 / RFU, TRMT61B / Fold change vs veh, TRMT61B / RFU, FUBP3 / Fold change vs veh, FUBP3 / RFU, TP53 / Fold change vs veh, TP53 / RFU, TNKS2 / Fold change vs veh, TNKS2 / RFU, ZFP14 / Fold change vs veh, ZFP14 / RFU, ACTR2 / Fold change vs veh, ACTR2 / RFU, PPP3R1 / Fold change vs veh, PPP3R1 / RFU, PIK3R1 / Fold change vs veh, PIK3R1 / RFU, HNRNPA1 / Fold change vs veh, HNRNPA1 / RFU, RNF170 / Fold change vs veh, RNF170 / RFU, ZNF28 / Fold change vs veh, ZNF28 / RFU, RNGTT / Fold change vs veh, RNGTT / RFU, OGT / Fold change vs veh, OGT / RFU, BRD1 / Fold change vs veh, BRD1 / RFU, MARS / Fold change vs veh, MARS / RFU, ZNF655 / Fold change vs veh, ZNF655 / RFU, FAHD1 / Fold change vs veh, FAHD1 / RFU, BDP1 / Fold change vs veh, BDP1 / RFU, LRRCC1 / Fold change vs veh, LRRCC1 / RFU, ARID1A / Fold change vs veh, ARID1A / RFU, ZNF146 / Fold change vs veh, ZNF146 / RFU, ZNF330 / Fold change vs veh, ZNF330 / RFU, GPN3 / Fold change vs veh, GPN3 / RFU, C9orf123 / Fold change vs veh, C9orf123 / RFU, N4BP2L2 / Fold change vs veh, N4BP2L2 / RFU, ARFIP1 / Fold change vs veh, ARFIP1 / RFU, FAM179B / Fold change vs veh, FAM179B / RFU, BCL10 / Fold change vs veh, BCL10 / RFU, UHRF1BP1L / Fold change vs veh, UHRF1BP1L / RFU, BET1 / Fold change vs veh, BET1 / RFU, CNOT2 / Fold change vs veh, CNOT2 / RFU, ZNF268 / Fold change vs veh, ZNF268 / Fold change vs veh, ZNF507 / RFU, DGCR2 / Fold change vs veh, DGCR2 / RFU, WDSUB1 / Fold change vs veh, WDSUB1 / Fold change vs veh, HSP90B1 /// MIR3652 / RFU, ADSS / Fold change vs veh, ADSS / RFU, GK / Fold change vs veh, GK / RFU, ZNF148 / Fold change vs veh, ZNF148 / RFU, TAF9 / Fold change vs veh, TAF9 / RFU, SLC1A5 / Fold change vs veh, SLC1A5 / RFU, SLMO2 / Fold change vs veh, SLMO2 / RFU, ABCC4 / Fold change vs veh, ABCC4 / RFU, LOC101060439 /// RAP1B / Fold change vs veh, LOC101060439 /// RAP1B / RFU, RFX7 / Fold change vs veh, RFX7 / RFU, GTPBP10 / Fold change vs veh, GTPBP10 / RFU, CNEP1R1 / Fold change vs veh, CNEP1R1 / RFU, BIVM-ERCC5 /// ERCC5 / Fold change vs veh, BIVM-ERCC5 /// ERCC5 / RFU, ILF3 / Fold change vs veh, ILF3 / RFU 11762660_at / Fold change /veh 11762660_at / RFU VCAN (11757783_s_at) / Fold change /veh VCAN (11757783_s_at) / RFU DDX43 (11728927_at) / Fold change /veh DDX43 (11728927_at) / RFU KRT8 (11758188_x_at) / Fold change /veh KRT8 (11758188_x_at) / RFU NKD1 (11759106_at) / Fold change /veh NKD1 (11759106_at) / RFU SRD5A1 (11742802_a_at) / Fold change /veh SRD5A1 (11742802_a_at) / RFU TPSAB1 /// TPSB2 (11721975_s_at) / Fold change /veh TPSAB1 /// TPSB2 (11721975_s_at) / RFU GSTM3 (11746129_a_at) / Fold change /veh GSTM3 (11746129_a_at) / RFU IL23R (11737362_x_at) / Fold change /veh IL23R (11737362_x_at) / RFU TMEM51 (11727254_a_at) / Fold change /veh TMEM51 (11727254_a_at) / RFU PIWIL2 (11732686_x_at) / Fold change /veh PIWIL2 (11732686_x_at) / RFU ORM1 (11744905_x_at) / Fold change /veh ORM1 (11744905_x_at) / RFU CCDC152 (11743942_at) / Fold change /veh CCDC152 (11743942_at) / RFU ECM1 (11717891_a_at) / Fold change /veh ECM1 (11717891_a_at) / RFU IL23R (11748794_a_at) / Fold change /veh IL23R (11748794_a_at) / RFU TNFAIP8L3 (11732012_x_at) / Fold change /veh TNFAIP8L3 (11732012_x_at) / RFU MBOAT4 (11741988_at) / Fold change /veh MBOAT4 (11741988_at) / RFU 11764193_at / Fold change /veh 11764193_at / RFU TMEM53 (11763286_at) / Fold change /veh TMEM53 (11763286_at) / RFU MAGEB2 (11727129_at) / Fold change /veh MAGEB2 (11727129_at) / RFU TMEM200A (11744735_a_at) / Fold change /veh TMEM200A (11744735_a_at) / RFU CCDC152 (11751479_a_at) / Fold change /veh CCDC152 (11751479_a_at) / RFU FAM211A (11726209_a_at) / Fold change /veh FAM211A (11726209_a_at) / RFU RGS16 (11746705_a_at) / Fold change /veh RGS16 (11746705_a_at) / RFU VCAN (11755009_s_at) / Fold change /veh VCAN (11755009_s_at) / RFU RHOB (11743442_s_at) / Fold change /veh RHOB (11743442_s_at) / RFU RGS16 (11720943_a_at) / Fold change /veh RGS16 (11720943_a_at) / RFU RGS16 (11720944_at) / Fold change /veh RGS16 (11720944_at) / RFU, VPS4B / Fold change vs veh, VPS4B / RFU, CREB1 / Fold change vs veh, CREB1 / RFU, DNAJC13 / Fold change vs veh, DNAJC13 / RFU, GNAQ / Fold change vs veh, GNAQ / RFU, CDK5R1 / Fold change vs veh, CDK5R1 / RFU, ZRANB3 / Fold change vs veh, ZRANB3 / RFU, CUL4A / Fold change vs veh, CUL4A / RFU, CCNY / Fold change vs veh, CCNY / RFU, UFL1 / Fold change vs veh, UFL1 / RFU, COG3 / Fold change vs veh, COG3 / RFU, DIAPH2 / Fold change vs veh, DIAPH2 / RFU, SKA2 / Fold change vs veh, SKA2 / RFU, AFF3 / Fold change vs veh, AFF3 / RFU, LMF1 / Fold change vs veh, LMF1 / RFU, IPO11 / Fold change vs veh, IPO11 / RFU, DFFB / Fold change vs veh, DFFB / RFU, FOXP1 / Fold change vs veh, FOXP1 / RFU, CARD8 / Fold change vs veh, CARD8 / RFU, STRN3 / Fold change vs veh, STRN3 / RFU, ADK / Fold change vs veh, ADK / RFU, RASSF2 / Fold change vs veh, RASSF2 / RFU, WIPF1 / Fold change vs veh, WIPF1 / RFU, LARP1B / Fold change vs veh, LARP1B / RFU, RASA1 / Fold change vs veh, RASA1 / RFU, RB1 / Fold change vs veh, RB1 / RFU, PPFIA1 / Fold change vs veh, PPFIA1 / RFU, MAT2A / Fold change vs veh, MAT2A / RFU, CCT5 / Fold change vs veh, CCT5 / RFU, WDR92 / Fold change vs veh, WDR92 / RFU, CUX1 / Fold change vs veh, CUX1 / RFU, TTC7A / Fold change vs veh, TTC7A / RFU, TMEM135 / Fold change vs veh, TMEM135 / RFU, DEPTOR / Fold change vs veh, DEPTOR / RFU, CPM / Fold change vs veh, CPM / RFU, DNAJB6 / Fold change vs veh, DNAJB6 / RFU, CACNA2D3 / Fold change vs veh, CACNA2D3 / RFU, DTX4 / Fold change vs veh, DTX4 / RFU, TFCP2 / Fold change vs veh, TFCP2 / RFU, GMCL1 /// GMCL1P1 / Fold change vs veh, GMCL1 /// GMCL1P1 / RFU, AEBP2 / Fold change vs veh, AEBP2 / RFU, SNHG1 /// SNORD22 /// SNORD25 /// SNORD26 /// SNORD27 /// SNORD28 /// SNORD29 /// SNORD31 / Fold change vs veh, SNHG1 /// SNORD22 /// SNORD25 /// SNORD26 /// SNORD27 /// SNORD28 /// SNORD29 /// SNORD31 / Fold change (Aza/veh), C12orf56 (ProbeSet 11735607_a_at) / Fold change (ACY-1035/veh), C12orf56 (ProbeSet 11735607_a_at) / Fold change (Aza/veh), FGFR1OP (ProbeSet 11751329_s_at) / Fold change (ACY-1035/veh), FGFR1OP (ProbeSet 11751329_s_at) / Fold change (Aza/veh), VPS36 (ProbeSet 11739960_a_at) / Fold change (ACY-1035/veh), VPS36 (ProbeSet 11739960_a_at) / RFU SYPL1 (11715823_x_at) / Fold change /veh SYPL1 (11715823_x_at) / RFU IGFBP7 (11715501_s_at) / Fold change /veh IGFBP7 (11715501_s_at) / RFU REEP3 (11722064_at) / Fold change /veh REEP3 (11722064_at) / RFU IGLL1 (11728026_x_at) / Fold change /veh IGLL1 (11728026_x_at): dose or concentration left out as unconfirmed. Conditions: MV-4-11 cells, 48 hours.

Each structure is given as a SMILES string.

As to `Nc1ncn([C@@H]2O[C@H](CO)[C@@H](O)[C@H]2O)c(=O)n1` [azacitidine], the “RFU CCDC152 (11743942_at)” value came out at 8.41 RFU.
